The target of one experiment is CDK12/CycK (Homo sapiens, UniProt Q9NYV4). Nature of the experiment: CDK12/CycK high ATP kinase assay (TR-FRET, 2 mM ATP). To be noted: 2 mM ATP (high ATP); median; read-out: CDK12/CyclinK, 2 mM ATP (high ATP), IC50-[mol/l] (median). It is filed as biochemical. The method in brief:
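His-tagged human CDK12/CycK (~0.75 nM) pre-incubated 15 min with compound, then 60 min at 22 °C with 2 mM ATP and 1 µM biotinylated peptide (HEPES pH 7.5, 20 mM MgCl2). EDTA stop; phospho-Ser62 antibody/Eu anti-rabbit and streptavidin-XL665 TR-FRET, 665/620 nm ratio normalised to give IC50.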

Experiment [1] has as its system CAL-120, human breast adenocarcinoma cells. Nature of the experiment: Proliferation assay CAL-120 (crystal violet, 4 days). To be noted: Homo sapiens, CAL-120, 96 h, CAL-120 cells, median, read-out: Prolif-CAL-120, IC50-[mol/l] (median). It is filed as cell-based. The method in brief: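 Following a 24 h attachment in 10% fetal calf serum medium, cells receive test substance over 0.01-10 µmol/L for 4 days. Dye retained by fixed cells is eluted and read at 595 nm; cell number change is referenced to day-0 and untreated wells.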

Experiment [2] concerns the target T1, CYCLIN K (nuclear staining in CAL-120 cells) (Homo sapiens, UniProt O75909).
T1 construct: endogenous in cells; host or cells: CAL-120 human breast cancer cells (DSMZ ACC 459)
Nature of the experiment: CYCLIN K nuclear protein level: immunofluorescence high content analysis (CAL-120). The experiment is classed as cell-based. As to conditions: 24 h, 50% reduction of nuclear CCNK staining intensity, median, read-out: CYCLIN K degradation IF, DC50-[mol/l] (median). The essentials:
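CAL-120 breast cancer cells treated in dose-response for 24 h at 37 °C, PFA-fixed and immunostained for cyclin K with Hoechst counterstain. Confocal imaging quantified nuclear intensity; DC50 is the concentration giving 50% reduction of nuclear CCNK staining, normalized to DMSO and control.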

A value given as a limit tells only on which side of the number the result lay.

T1 sequence (O75909 whole entry): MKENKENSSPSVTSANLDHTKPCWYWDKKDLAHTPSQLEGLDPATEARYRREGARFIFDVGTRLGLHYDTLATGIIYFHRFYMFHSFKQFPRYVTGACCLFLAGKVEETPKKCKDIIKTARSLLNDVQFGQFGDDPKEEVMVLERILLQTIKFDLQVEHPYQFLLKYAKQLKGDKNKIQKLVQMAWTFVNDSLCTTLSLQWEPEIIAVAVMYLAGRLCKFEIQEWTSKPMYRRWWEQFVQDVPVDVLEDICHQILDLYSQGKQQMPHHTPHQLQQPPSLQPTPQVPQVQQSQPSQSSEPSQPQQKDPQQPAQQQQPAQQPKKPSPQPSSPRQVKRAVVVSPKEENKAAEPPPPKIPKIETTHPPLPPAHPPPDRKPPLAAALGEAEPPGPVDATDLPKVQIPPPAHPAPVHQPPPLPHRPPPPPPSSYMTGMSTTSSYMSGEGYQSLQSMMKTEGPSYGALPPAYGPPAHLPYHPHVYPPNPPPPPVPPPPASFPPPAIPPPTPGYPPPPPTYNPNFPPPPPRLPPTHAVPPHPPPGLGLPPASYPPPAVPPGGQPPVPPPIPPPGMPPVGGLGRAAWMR
T1 sequence (Q9NYV4 whole entry partner): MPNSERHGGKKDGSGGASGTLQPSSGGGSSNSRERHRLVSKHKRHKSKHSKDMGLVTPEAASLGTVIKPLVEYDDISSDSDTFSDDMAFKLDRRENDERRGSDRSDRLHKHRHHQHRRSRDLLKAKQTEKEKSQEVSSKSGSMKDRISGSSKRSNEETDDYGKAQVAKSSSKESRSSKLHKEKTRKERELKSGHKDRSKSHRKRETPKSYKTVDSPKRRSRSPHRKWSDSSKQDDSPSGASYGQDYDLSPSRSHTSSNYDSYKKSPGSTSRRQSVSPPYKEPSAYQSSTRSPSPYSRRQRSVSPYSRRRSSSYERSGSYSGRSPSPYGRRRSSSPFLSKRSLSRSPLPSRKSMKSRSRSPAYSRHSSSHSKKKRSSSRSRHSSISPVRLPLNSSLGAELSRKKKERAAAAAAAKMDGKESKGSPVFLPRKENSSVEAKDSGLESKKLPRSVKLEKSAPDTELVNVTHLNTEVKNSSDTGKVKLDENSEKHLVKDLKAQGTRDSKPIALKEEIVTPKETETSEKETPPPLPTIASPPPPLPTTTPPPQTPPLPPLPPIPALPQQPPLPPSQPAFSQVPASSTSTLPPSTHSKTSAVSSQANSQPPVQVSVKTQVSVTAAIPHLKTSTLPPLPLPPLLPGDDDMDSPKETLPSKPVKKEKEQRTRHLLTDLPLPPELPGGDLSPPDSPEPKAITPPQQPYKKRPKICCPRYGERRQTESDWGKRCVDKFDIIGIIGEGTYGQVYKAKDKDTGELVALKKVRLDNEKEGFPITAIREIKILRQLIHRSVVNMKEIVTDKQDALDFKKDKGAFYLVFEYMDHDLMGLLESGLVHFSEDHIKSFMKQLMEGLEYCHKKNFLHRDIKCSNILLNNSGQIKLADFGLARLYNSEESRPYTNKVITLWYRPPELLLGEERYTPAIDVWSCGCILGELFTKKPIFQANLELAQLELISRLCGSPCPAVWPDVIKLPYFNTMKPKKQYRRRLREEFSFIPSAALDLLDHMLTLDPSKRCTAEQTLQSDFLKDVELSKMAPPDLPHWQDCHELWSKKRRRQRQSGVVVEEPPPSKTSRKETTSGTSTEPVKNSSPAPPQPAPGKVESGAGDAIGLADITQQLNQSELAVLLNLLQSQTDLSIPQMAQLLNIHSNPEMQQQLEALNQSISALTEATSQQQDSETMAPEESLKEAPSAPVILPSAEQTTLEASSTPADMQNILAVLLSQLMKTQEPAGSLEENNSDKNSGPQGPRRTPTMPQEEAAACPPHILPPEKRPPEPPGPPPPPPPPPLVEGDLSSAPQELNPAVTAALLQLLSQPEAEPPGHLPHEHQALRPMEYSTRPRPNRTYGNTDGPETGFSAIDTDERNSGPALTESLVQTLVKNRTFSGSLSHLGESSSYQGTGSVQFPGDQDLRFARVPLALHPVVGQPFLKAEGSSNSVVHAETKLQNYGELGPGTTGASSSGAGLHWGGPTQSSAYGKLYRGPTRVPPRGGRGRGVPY
Sequence of CDK12/CycK (Q9NYV4 with tags, fused parts or gaps): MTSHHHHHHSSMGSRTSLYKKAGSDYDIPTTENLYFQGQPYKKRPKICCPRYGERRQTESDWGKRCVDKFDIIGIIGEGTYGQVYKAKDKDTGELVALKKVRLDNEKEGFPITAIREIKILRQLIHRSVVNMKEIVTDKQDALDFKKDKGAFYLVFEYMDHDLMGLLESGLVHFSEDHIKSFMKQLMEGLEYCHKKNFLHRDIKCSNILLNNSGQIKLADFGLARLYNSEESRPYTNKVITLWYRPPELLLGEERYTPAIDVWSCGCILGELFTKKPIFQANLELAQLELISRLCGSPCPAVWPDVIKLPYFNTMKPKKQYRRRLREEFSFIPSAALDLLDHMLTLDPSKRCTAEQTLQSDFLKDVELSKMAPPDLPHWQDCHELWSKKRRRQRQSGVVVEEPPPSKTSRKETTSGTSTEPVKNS
Sequence of CDK12/CycK (O75909 1-300 partner limits assumed): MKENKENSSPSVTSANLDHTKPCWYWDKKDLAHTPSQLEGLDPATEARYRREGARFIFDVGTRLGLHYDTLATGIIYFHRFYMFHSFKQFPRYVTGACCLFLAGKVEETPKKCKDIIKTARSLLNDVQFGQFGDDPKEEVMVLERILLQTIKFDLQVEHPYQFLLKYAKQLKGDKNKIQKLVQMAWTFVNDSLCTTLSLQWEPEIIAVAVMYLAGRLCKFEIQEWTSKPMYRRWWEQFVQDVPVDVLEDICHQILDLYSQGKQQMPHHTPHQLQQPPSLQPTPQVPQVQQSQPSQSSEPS

As to `CN1CCCC2CN(c3nc(NCc4nc5ccccc5[nH]4)n4ncc(Br)c4n3)CC21` (stereo not drawn) [Example 231, N-[(1H-benzimidazol-2-yl)methyl]-8-bromo-2-(1-methyloctahydro-6H-pyrrolo[3,4-b]pyridin-6-yl)pyrazolo[1,5-a][1,3,5]triazin-4-amine], the IC50 at CDK12/CycK was greater than 20000 nM; in experiment [1], 135 nM. Also, in experiment [2], the DC50 amounted to 34.1 nM.

With `Clc1cnn2c(NCc3nc4ccccc4[nH]3)nc(N3CCOCC3)nc12` [Example 15, N-[(1H-benzimidazol-2-yl)methyl]-8-chloro-2-(morpholin-4-yl)pyrazolo[1,5-a][1,3,5]triazin-4-amine], the IC50 came to 6020 nM on CDK12/CycK and 29.5 nM in experiment [1]. The DC50 in experiment [2] was 4.51 nM.

Turning to `Cc1ccc2[nH]c(CNc3nc(N4C[C@@H](C)N[C@@H](C)C4)nc4c(C5CC5)cnn34)nc2c1` [Example 194, 8-cyclopropyl-2-[(3R,5S)-3,5-dimethylpiperazin-1-yl]-N-[(5-methyl-1H-benzimidazol-2-yl)methyl]pyrazolo[1,5-a][1,3,5]triazin-4-amine], the IC50 was determined as 3700 nM at CDK12/CycK and 1.16 nM in experiment [1]. In addition, in experiment [2], the DC50 amounted to 0.0954 nM.

In the case of `Cc1ccc2[nH]c(CNc3nc(N4C[C@@H]5CCCN[C@@H]5C4)nc4c(Br)cnn34)nc2c1` [Example 203, 8-bromo-N-[(5-methyl-1H-benzimidazol-2-yl)methyl]-2-[(4aS, 7aS)-octahydro-6H-pyrrolo[3,4-b]pyridin-6-yl]pyrazolo[1,5-a][1,3,5]triazin-4-amine], the IC50 amounted to 8800 nM at CDK12/CycK and 1.02 nM in experiment [1]. Also, the DC50 in experiment [2] was found to be 0.119 nM.

On to `CN(CC(C)(C)O)c1nc(NCc2nc3ccccc3[nH]2)n2ncc(Br)c2n1` [Example 238, 1-[(4-{[(1H-benzimidazol-2-yl)methyl]amino}-8-bromopyrazolo[1,5-a][1,3,5]triazin-2-yl)(methyl)amino]-2-methylpropan-2-ol], for which the IC50 is 1790 nM at CDK12/CycK and 36.3 nM in experiment [1]. Also, in experiment [2], the DC50 turned out to be 4.19 nM.

Regarding `Brc1cnn2c(NCc3nc4ccccc4[nH]3)nc(N3C[C@H]4CCCN[C@H]4C3)nc12` [Example 199, N-[(1H-benzimidazol-2-yl)methyl]-8-bromo-2-[(4aR, 7aR)-octahydro-6H-pyrrolo[3,4-b]pyridin-6-yl]pyrazolo[1,5-a][1,3,5]triazin-4-amine], the IC50 on CDK12/CycK was determined as 14800 nM; in experiment [1] it was 15.4 nM. The DC50 in experiment [2] turned out to be 2.32 nM.

Take `COC(C)(C)CNc1nc(NCc2nc3ccccc3[nH]2)n2ncc(Br)c2n1` [Example 236, N4-(1H-benzimidazol-2-ylmethyl)-8-bromo-N2-(2-methoxy-2-methyl-propyl)pyrazolo[1,5-a][1,3,5]triazine-2,4-diamine]: the values for the IC50 (at CDK12/CycK; in experiment [1]) were greater than 17900 nM and 97.4 nM, respectively. Also, the DC50 in experiment [2] was determined as 1.72 nM.

As to `Cc1ccc2[nH]c(CNc3nc(N4CCN(C)CC4)nc4c(C5CC5)cnn34)nc2c1` [Example 210, 8-cyclopropyl-N-[(5-methyl-1H-benzimidazol-2-yl)methyl]-2-(4-methylpiperazin-1-yl)pyrazolo[1,5-a][1,3,5]triazin-4-amine], the values for the IC50 (at CDK12/CycK; in experiment [1]) were greater than 20000 nM and 4.66 nM, respectively. In addition, the DC50 in experiment [2] was found to be 0.199 nM.

`COc1cccc2[nH]c(CNc3nc(N4CCOCC4)nc4c(C5CC5)cnn34)nc12` [Example 213, 8-cyclopropyl-N-[(4-methoxy-1H-benzimidazol-2-yl)methyl]-2-morpholino-pyrazolo[1,5-a][1,3,5]triazin-4-amine]: the IC50 came out at 1050 nM at CDK12/CycK and 10.7 nM in experiment [1]. In experiment [2], the DC50 worked out at 1.55 nM.

For the compound `Brc1cnn2c(NCc3nc4ccccc4[nH]3)nc(N3CC4CCC3CN4)nc12` (stereo not drawn) [Example 220, N-(1H-benzimidazol-2-ylmethyl)-8-bromo-2-(2,5-diazabicyclo[2.2.2]octan-2-yl)pyrazolo[1,5-a][1,3,5]triazin-4-amine], the IC50 on CDK12/CycK came to 5550 nM; in experiment [1], 7.04 nM. The DC50 in experiment [2] was 1.14 nM.

With `FC(F)(F)c1cnn2c(NCc3nc4ccccc4[nH]3)nc(N3CCOCC3)nc12` [Example 241, N-[(1H-benzimidazol-2-yl)methyl]-2-(morpholin-4-yl)-8-(trifluoromethyl) pyrazolo[1,5-a][1,3,5]triazin-4-amine], the IC50 on CDK12/CycK turned out to be 805 nM; in experiment [1] it was 29.6 nM. Moreover, the DC50 in experiment [2] is 1.26 nM.

Turning to `CN1CC2CN(c3nc(NCc4nc5ccccc5[nH]4)n4ncc(Br)c4n3)CC2C1` (stereo not drawn) [Example 240, N-(1H-benzimidazol-2-ylmethyl)-8-bromo-2-(2-methyl-1,3,3a,4,6,6a-hexahydropyrrolo[3,4-c]pyrrol-5-yl)pyrazolo[1,5-a][1,3,5]triazin-4-amine], the IC50 at CDK12/CycK was greater than 20000 nM; in experiment [1], 23.7 nM. Besides, the DC50 in experiment [2] was 1.09 nM.

For the compound `COc1cccc2[nH]c(CNc3nc(N4C[C@@H]5CCCN[C@@H]5C4)nc4c(C5CC5)cnn34)nc12` [Example 214, 8-cyclopropyl-N-[(4-methoxy-1H-benzimidazol-2-yl)methyl]-2-[(4aS,7aS)-octahydro-6H-pyrrolo[3,4-b]pyridin-6-yl]pyrazolo[1,5-a][1,3,5]triazin-4-amine], the results for the IC50 (on CDK12/CycK; in experiment [1]) were 8090 nM and 6.2 nM, respectively. For the same compound, the DC50 in experiment [2] amounted to 0.347 nM.

With `CN1CC[C@@H]2CN(c3nc(NCc4nc5ccccc5[nH]4)n4ncc(Br)c4n3)C[C@@H]21` [Example 217, N-[(1H-benzimidazol-2-yl)methyl]-8-bromo-2-[(3aR,6aR)-1-methylhexahydropyrrolo[3,4-b]pyrrol-5 (1H)-yl]pyrazolo[1,5-a][1,3,5]triazin-4-amine], the IC50 on CDK12/CycK is greater than 20000 nM; in experiment [1], 44.9 nM. Besides, in experiment [2], the DC50 was determined as 4.56 nM.

Take `Brc1cnn2c(NCc3nc4ccccc4[nH]3)nc(N3CCC4(CCCN4)C3)nc12` (stereo not drawn) [Example 215, N-(1H-benzimidazol-2-ylmethyl)-8-bromo-2-(1,7-diazaspiro[4.4]nonan-7-yl)pyrazolo[1,5-a][1,3,5]triazin-4-amine]: the IC50 on CDK12/CycK was greater than 20000 nM; in experiment [1] it was 34.3 nM. For the same compound, the DC50 in experiment [2] came to 6.49 nM.

In the case of `COc1ccc2[nH]c(CNc3nc(N4C[C@@H](C)N[C@@H](C)C4)nc4c(Br)cnn34)nc2c1` [Example 205, 8-bromo-2-[(3R,5S)-3,5-dimethylpiperazin-1-yl]-N-[(5-methoxy-1 H-benzimidazol-2-yl)methyl]pyrazolo[1,5-a][1,3,5]triazin-4-amine], the results for the IC50 (at CDK12/CycK; in experiment [1]) were 7970 nM and 1.73 nM, respectively. Besides, the DC50 in experiment [2] turned out to be 0.279 nM.

With `CN1C[C@H]2C[C@@H]1CN2c1nc(NCc2nc3ccccc3[nH]2)n2ncc(Br)c2n1` [Example 218, N-[(1H-benzimidazol-2-yl)methyl]-8-bromo-2-[(1R,4R)-5-methyl-2,5-diazabicyclo[2.2.1]heptan-2-yl]pyrazolo[1,5-a][1,3,5]triazin-4-amine], the results for the IC50 (at CDK12/CycK; in experiment [1]) were greater than 20000 nM and 21.1 nM, respectively. Besides, the DC50 in experiment [2] stood at 0.685 nM.

For the compound `Cc1ccc2[nH]c(CNc3nc(N4CCOCC4)nc4c(C5CC5)cnn34)nc2c1` [Example 193, 8-cyclopropyl-N-[(5-methyl-1H-benzimidazol-2-yl)methyl]-2-(morpholin-4-yl)pyrazolo[1,5-a][1,3,5]triazin-4-amine], the IC50 on CDK12/CycK amounted to 1750 nM; in experiment [1], 5.06 nM. Further, the DC50 in experiment [2] worked out at 0.958 nM.

As for `Fc1ccc2[nH]c(CNc3nc(N4C[C@@H]5CCCN[C@@H]5C4)nc4c(C5CC5)cnn34)nc2c1F` [Example 171, 8-cyclopropyl-N-[(4,5-difluoro-1H-benzimidazol-2-yl)methyl]-2-[(4aS,7aS)-octahydro-6H-pyrrolo[3,4-b]pyridin-6-yl]pyrazolo[1,5-a][1,3,5]triazin-4-amine], the IC50 amounted to 6560 nM at CDK12/CycK and 2.66 nM in experiment [1]. Further, in experiment [2], the DC50 turned out to be 0.981 nM.

On to `CN(CCO)c1nc(NCc2nc3ccccc3[nH]2)n2ncc(Br)c2n1` [Example 237, 2-[(4-{[(1H-benzimidazol-2-yl)methyl]amino}-8-bromopyrazolo[1,5-a][1,3,5]triazin-2-yl)(methyl)amino]ethan-1-ol], for which the IC50 was found to be 7350 nM at CDK12/CycK and 164 nM in experiment [1]. In addition, the DC50 in experiment [2] came to 19.7 nM.

`CN1CC2CCC1CN2c1nc(NCc2nc3ccccc3[nH]2)n2ncc(Br)c2n1` (stereo not drawn) [Example 221, N-(1H-benzimidazol-2-ylmethyl)-8-bromo-2-(5-methyl-2,5-diazabicyclo[2.2.2]octan-2-yl)pyrazolo[1,5-a][1,3,5]triazin-4-amine]: the results for the IC50 (on CDK12/CycK; in experiment [1]) were 7980 nM and 13 nM, respectively. Also, in experiment [2], the DC50 came to 0.41 nM.

As to `C[C@@H]1CN(c2nc(NCc3nc4c(F)c(F)ccc4[nH]3)n3ncc(C4CC4)c3n2)C[C@H](C)N1` [Example 170, 8-cyclopropyl-N-[(4,5-difluoro-1H-benzimidazol-2-yl)methyl]-2-[(3R,5S)-3,5-dimethylpiperazin-1-yl]pyrazolo[1,5-a][1,3,5]triazin-4-amine], the IC50 worked out at 3040 nM on CDK12/CycK and 1 nM in experiment [1]. The DC50 in experiment [2] came out at 0.415 nM.

Values taken from patent US20230117034A1, “PYRAZOLOTRIAZINES” (Bayer Aktiengesellschaft, priority 2019, published 2023).
